Assay results reported in patent US20120004281A1, “RNA Interference Mediated Inhibition of the Nerve Growth Factor Beta Chain (NGFB) Gene Expression Using Short Interfering Nucleic Acid (siNA)” (Merck Sharp & Dohme Corp, priority 2009, published 2012).
[invAb] = inverted abasic unit; m = 2'-O-methyl; r = 2'-OH (RNA); f = 2'-fluoro

Tested on: NGFβ mRNA
Assay: NGFβ mRNA knock-down in Calu-1 cells (RNAiMax transfection, Taqman RT-PCR)
Format: cell-based, human
Details: human Calu-1 cells, 10 nM siNA, 24 hrs post-transfection, relative to non-targeting control, normalized to GAPDH
Experimental: Calu-1 (human; ATCC cat# HTB-54): Cells were cultured at 37° C. in the presence of 5% CO2 and grown in McCoy's 5a medium supplemented with fetal bovine serum at a final concentration of 10% and 100 μg/mL of streptomycin and 100 U/mL penicillin.
All transfections were performed using RNAiMax (Invitrogen Cat# 13778-150) as per the manufacturer's instructions.
Cells were plated in all wells of a tissue-culture treated, 96-well plate at a final count of 5,000 cells/well in […], of appropriate culture media. Cells were cultured for 24 hours after plating at 37° C. in the presence of 5% CO2.
After 24 hours, complexes containing siNA and RNAiMax were created as follows: A solution of RNAiMax diluted 33-fold in OPTI-MEM was prepared. In parallel, solutions of the siNAs for testing were prepared to a final concentration of 120 nM in OPTI-MEM. After incubation of RNAiMax/OPTI-MEM solution at room temperature for 5 min, an equal volume of the siRNA solution and the RNAiMax solution were added together for each of the siNAs.
This solution was incubated at room temperature for 20 minutes. After incubation, 20 uL of the solution was added to each of the relevant wells.
The final concentration of siNA in each well was 10 nM and the final volume of RNAiMax in each well was 0.3u1.
The time of incubation with the RNAiMax-siNA complexes was 24 hours, unless otherwise indicated. There was no change in media between the transfection and harvesting of the cells unless otherwise indicated.
Dose response curves were carried out in a similar fashion in 96-well plates, while maintaining a constant amount of RNAiMax in each transfection.
RNA was extracted from a 96-well plate using the TaqMan® Gene Expression Cells-to-CT™ Kit (Cat# 4399002) with a modified protocol. Briefly, a 60 uL (1 plate) or 110 uL (2 plates) of the Lysis Solution with DNase I was dispensed into each well of the Lysis Buffer Plate (twin.tec full skirt plate). The lysis buffer and stop plates were stored at 4° C. until the cells were washed.
The plate was spun at 1100 rpm for 5 minutes. The culture medium was aspirated and discarded from the wells of the culture plate. The lysis was performed automatically using a BioMek FX instrument and method. After the Biomek method was completed, the lysis plate was incubated for 2 min. at room temperature. The lysis plate can be stored for 2 hours at 4° C., or at −20° C. or −80° C. for two months.
Each well of the reverse transcription plate required 10 uL of 2× reverse transcriptase Buffer, luL of 20× reverse transcription enzyme and 2 uL of nuclease-free water. The reverse transcription master mix was prepared by mixing 2× reverse transcription buffer, 20× reverse transcription enzyme mix, and nuclease-free water. 13 uL of the reverse transcription master mix was dispensed into each well of the reverse transcription plate (semi-skirted). A separate reverse transcription plate was prepared for each cell plate. The plate was loaded onto a Biomek NX or Biomek FX Dual-96 and the Biomek method was run. The program is programmed to automatically added 7 uL of lysate from the cell lysis procedure described above into each well of the reverse transcription plate. The plate is sealed and spun on a centrifuge (1000 rpm for 30 seconds) to settle the contents to the bottom of the reverse transcription plate. The plate is placed in a thermocycler at 37° C. for 60 min, 95° C. for 5 min, and 4° C. until the plate is removed from the thermocycler. Upon removal, if not used immediately, the plate was frozen at −20° C.
A series of probes and primers were used to detect the various mRNA transcripts of the genes of NGFβ, BDNF and GAPDH in human cell lines. All the Taqman probes and primers for the experiments here-in described were supplied as pre-validated sets by Applied Biosystems, Inc. (see Table 3). The assays were performed on an ABI 7900 instrument, according to the manufacturer's instructions. […]

Substance | % KD in CaLu-1 Cells [%]
25415-DC: siNA duplex, NGFβ target site 609; sense B ccAccGccAcAGAcAucAA TTB (SEQ ID NO: 55), antisense UUGAuGucuGuGGcGGuGGUU (SEQ ID NO: 56) (sense CCACCGCCACAGACAUCAATT; antisense UUGAUGUCUGUGGCGGUGGUU; sense: DNA at AGT, 2'-fluoro at CU, [invAb] at 5' end, 3' end, backbone not given here; antisense: sugars from the 5' end rrrmfmfffmfmmfmmfmmmm, backbone not given here) | 61
25418-DC: siNA duplex, NGFβ target site 650; sense B GGAGAGGuGAAcAuuAAcA TTB (SEQ ID NO: 61), antisense UGUuAAuGuucAccucuccUU (SEQ ID NO: 62) (sense GGAGAGGUGAACAUUAACATT; antisense UGUUAAUGUUCACCUCUCCUU; sense: DNA at AGT, 2'-fluoro at CU, [invAb] at 5' end, 3' end, backbone not given here; antisense: sugars from the 5' end rrrfmmfmfffmfffffffmm, backbone not given here) | 26
25419-DC: siNA duplex, NGFβ target site 648; sense B uGGGAGAGGuGAAcAuuAA TTB (SEQ ID NO: 63), antisense UUAAuGuucAccucucccAUU (SEQ ID NO: 64) (sense UGGGAGAGGUGAACAUUAATT; antisense UUAAUGUUCACCUCUCCCAUU; sense: DNA at AGT, 2'-fluoro at CU, [invAb] at 5' end, 3' end, backbone not given here; antisense: sugars from the 5' end rrrmfmfffmffffffffmmm, backbone not given here) | 25
25420-DC: siNA duplex, NGFβ target site 510; sense B AcAGGAcucAcAGGAGcAA TTB (SEQ ID NO: 65), antisense UUGcuccuGuGAGuccuGuUU (SEQ ID NO: 66) (sense ACAGGACUCACAGGAGCAATT; antisense UUGCUCCUGUGAGUCCUGUUU; sense: DNA at AGT, 2'-fluoro at CU, [invAb] at 5' end, 3' end, backbone not given here; antisense: sugars from the 5' end rrrfffffmfmmmffffmfmm, backbone not given here) | 44
25421-DC: siNA duplex, NGFβ target site 675; sense B uAuucAAAcAGuAcuuuuu TTB (SEQ ID NO: 67), antisense AAAAAGuAcUGuuuGAAuAUU (SEQ ID NO: 68) (sense UAUUCAAACAGUACUUUUUTT; antisense AAAAAGUACUGUUUGAAUAUU; sense: DNA at AGT, 2'-fluoro at CU, [invAb] at 5' end, 3' end, backbone not given here; antisense: sugars from the 5' end rrrmmmfmfmmfffmmmfmmm, backbone not given here) | 56
25423-DC: siNA duplex, NGFβ target site 519; sense B AcAGGAGcAAGcGGucAuc TTB (SEQ ID NO: 71), antisense GAUGAccGcuuGcuccuGuUU (SEQ ID NO: 72) (sense ACAGGAGCAAGCGGUCAUCTT; antisense GAUGACCGCUUGCUCCUGUUU; sense: DNA at AGT, 2'-fluoro at CU, [invAb] at 5' end, 3' end, backbone not given here; antisense: sugars from the 5' end rrrmmffmfffmfffffmfmm, backbone not given here) | 40
25426-DC: siNA duplex, NGFβ target site 676; sense B AuucAAAcAGuAcuuuuuu TTB (SEQ ID NO: 77), antisense AAAAAAGuAcuGuuuGAAuUU (SEQ ID NO: 78) (sense AUUCAAACAGUACUUUUUUTT; antisense AAAAAAGUACUGUUUGAAUUU; sense: DNA at AGT, 2'-fluoro at CU, [invAb] at 5' end, 3' end, backbone not given here; antisense: sugars from the 5' end rrrmmmmfmffmfffmmmfmm, backbone not given here) | 38
25427-DC: siNA duplex, NGFβ target site 516; sense B cucAcAGGAGcAAGcGGuc TTB (SEQ ID NO: 79), antisense GACcGcuuGcuccuGuGAGUU (SEQ ID NO: 80) (sense CUCACAGGAGCAAGCGGUCTT; antisense GACCGCUUGCUCCUGUGAGUU; sense: DNA at AGT, 2'-fluoro at CU, [invAb] at 5' end, 3' end, backbone not given here; antisense: sugars from the 5' end rrrfmfffmfffffmfmmmmm, backbone not given here) | 6
25428-DC: siNA duplex, NGFβ target site 677; sense B uucAAAcAGuAcuuuuuuG TTB (SEQ ID NO: 81), antisense CAAAAAAGuAcuGuuuGAAUU (SEQ ID NO: 82) (sense UUCAAACAGUACUUUUUUGTT; antisense CAAAAAAGUACUGUUUGAAUU; sense: DNA at AGT, 2'-fluoro at CU, [invAb] at 5' end, 3' end, backbone not given here; antisense: sugars from the 5' end rrrmmmmmfmffmfffmmmmm, backbone not given here) | 57
25429-DC: siNA duplex, NGFβ target site 469; sense B ucAGGAucuGGAcuucGAG TTB (SEQ ID NO: 83), antisense CUCGAAGuccAGAuccuGAUU (SEQ ID NO: 84) (sense UCAGGAUCUGGACUUCGAGTT; antisense CUCGAAGUCCAGAUCCUGAUU; sense: DNA at AGT, 2'-fluoro at CU, [invAb] at 5' end, 3' end, backbone not given here; antisense: sugars from the 5' end rrrmmmmfffmmmffffmmmm, backbone not given here) | 1
